Results on ten compounds are retold here after patent US20260077051A1, “COMPOUNDS FOR THE DEGRADATION OF EGFR KINASE” (BeOne Medicines I GmbH, priority 2023, published 2026).

As usually defined, the DC50 is the concentration giving 50% degradation. Lower therefore signals degradation at low concentration. Usually Dmax stands for the largest share of the target that was removed. A high value points to a fuller loss of target.

The target of test [1] is T1, EGFR L858R (BaF3-L858R cells) (Homo sapiens, UniProt P00533, L858R).
T1 construct: host or cells: BaF3
As to the kind of experiment: EGFR degradation in BaF3-L858R cells (HTRF assay). The settings on record: 16 h treatment; for DC50: IC50(DC50) of EGFR degradation; for Dmax: maximum percentage of inhibition (degradation). Type of test: cell-based. How it is done: BaF3-L858R (abbv. L858R) cell were purchased from Kangyuan Bochuang Biotechnology (Beijing) Co., Ltd.
(§1) H1975-#8 and BaF3-L858R cells are treated with compounds diluted in 0.1% DMSO cell culture medium on day 2, incubate for 16 h, 37° C., 5% CO2. the final concentration of compounds in all assay is start with 10 uM, 5-fold dilution, total 8 doses were included.
(§2) After 16 h treatment, for H1975-#8 cells, add 100 ul HTRF 1× lysis buffer to each well; for BaF3-L858R cells, add 20 μl 4× lysis buffer to each well; seal the plate and incubate 1 hour at room temperature on a plate shaker; Once the cells are lysed, 16 μL of cell lysate are transferred to a PE 384-well HTRF detection plate; 4 μL of pre-mixed HTRF antibodies are added to each well; Cover the plate with a plate sealer, spin 1000 rpm for 1 min, Incubate overnight at room temperature; Read on BMG PheraStar with HTRF protocol (337 nm-665 nm-620 nm).
(§3) The inhibition (degradation) percentage of the compound was calculated by the following equation:
(§4) High control=Cell group with added DMSO and without compound, indicating microplate readings without EGFR degradation;
(§5) Dmax is the maximum percentage of inhibition (degradation).
(§6) The IC50(DC50) value of a compound can be obtained by fitting the following equation
(§7) Wherein, X and Y are known values, and IC50, Hillslope, Top and Bottom are the parameters obtained by fitting with software. Y is the inhibition percentage (calculated from the equation), X is the concentration of the compound; IC50 is the concentration of the compound when the 50% inhibition is reached. The smaller the IC50 value is, the stronger the inhibitory ability of the compound is. Vice versa, the higher the IC50 value is, the weaker the ability the inhibitory ability of the compound is; Hillslope represents the slope of the fitted curve, generally around 1*; Bottom represents the minimum value of the curve obtained by data fitting, which is generally 0%±20%; Top represents the maximum value of the curve obtained by data fitting, which is generally 100%±20%. The experimental data were fitted by calculating and analyzing with Dotmatics data analysis software.
In general terms: TR-FRET usually uses a lanthanide donor and a delayed reading to cut background.

In test [2] the target is T2, EGFR-L858R/C797S (H1975-clone #8 cells) (Homo sapiens, UniProt P00533, C797S/L858R).
T2 construct: expressed in transfected cells; host or cells: H1975 (lentiviral transduction, endogenous EGFR knocked out, single clone #8)
The test is described as follows: EGFR degradation in H1975-clone#8 (L858R/C797S) cells (HTRF assay). The format is cell-based. The note with it: 16 h treatment; for DC50: IC50(DC50) of EGFR degradation; for Dmax: maximum percentage of inhibition (degradation). How it is done: H1975-clone #8 (L858R/C797S): EGFR-L858R/C797S were stably expressed in H1975 cell lines by lentivirus-mediated over-expression, respectively. The EGFR over-expressed cells then underwent knockout, in which the EGFR targeting sgRNA was designed to only target the endogenous EGFR copies and preserve the exogenous EGFR copies. Followed by the knockout, the edited H1975 cells were seeded in 96 well plates at the concentration of […], cultured for about 2 weeks to allow single clones formation. The formed clones were screened by DNA sequencing and whole exon sequencing analysis for the desired edition. H1975-clone #8 were finally confirmed as homozygous L858R/C797S EGFR clones.
as §1, §2, §3, §4, §5, §6, §7

SMILES strings stand for the structures.

T2 sequence (P00533 25-1210 C797S/L858R): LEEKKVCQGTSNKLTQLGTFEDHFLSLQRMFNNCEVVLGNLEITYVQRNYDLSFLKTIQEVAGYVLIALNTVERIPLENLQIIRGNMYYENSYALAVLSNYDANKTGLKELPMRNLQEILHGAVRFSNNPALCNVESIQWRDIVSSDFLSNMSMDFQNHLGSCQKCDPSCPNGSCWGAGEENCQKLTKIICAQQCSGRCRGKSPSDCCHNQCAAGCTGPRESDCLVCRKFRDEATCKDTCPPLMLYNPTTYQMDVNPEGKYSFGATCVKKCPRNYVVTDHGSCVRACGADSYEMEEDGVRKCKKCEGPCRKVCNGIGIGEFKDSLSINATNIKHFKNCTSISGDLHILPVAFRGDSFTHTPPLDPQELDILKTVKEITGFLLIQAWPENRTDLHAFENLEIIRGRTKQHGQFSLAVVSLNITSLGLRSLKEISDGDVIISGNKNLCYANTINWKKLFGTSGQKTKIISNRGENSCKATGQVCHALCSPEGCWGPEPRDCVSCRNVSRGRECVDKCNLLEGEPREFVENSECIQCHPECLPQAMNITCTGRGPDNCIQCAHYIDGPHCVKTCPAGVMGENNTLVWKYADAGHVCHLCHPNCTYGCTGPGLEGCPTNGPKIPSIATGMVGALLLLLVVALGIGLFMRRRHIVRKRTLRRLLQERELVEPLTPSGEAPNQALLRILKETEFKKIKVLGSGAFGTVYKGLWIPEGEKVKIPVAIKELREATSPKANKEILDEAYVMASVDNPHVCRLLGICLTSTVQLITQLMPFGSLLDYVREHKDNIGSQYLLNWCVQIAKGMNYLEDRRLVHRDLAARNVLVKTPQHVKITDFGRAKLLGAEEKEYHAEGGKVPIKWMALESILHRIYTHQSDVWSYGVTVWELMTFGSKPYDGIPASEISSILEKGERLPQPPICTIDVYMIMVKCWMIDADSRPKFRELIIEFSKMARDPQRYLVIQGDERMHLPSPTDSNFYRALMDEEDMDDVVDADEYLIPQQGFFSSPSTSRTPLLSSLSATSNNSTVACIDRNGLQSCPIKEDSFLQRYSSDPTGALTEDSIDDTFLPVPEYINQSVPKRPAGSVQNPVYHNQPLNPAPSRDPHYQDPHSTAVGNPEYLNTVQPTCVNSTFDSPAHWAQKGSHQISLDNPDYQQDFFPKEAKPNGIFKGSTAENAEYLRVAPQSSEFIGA
T1 sequence (P00533 25-1210 L858R): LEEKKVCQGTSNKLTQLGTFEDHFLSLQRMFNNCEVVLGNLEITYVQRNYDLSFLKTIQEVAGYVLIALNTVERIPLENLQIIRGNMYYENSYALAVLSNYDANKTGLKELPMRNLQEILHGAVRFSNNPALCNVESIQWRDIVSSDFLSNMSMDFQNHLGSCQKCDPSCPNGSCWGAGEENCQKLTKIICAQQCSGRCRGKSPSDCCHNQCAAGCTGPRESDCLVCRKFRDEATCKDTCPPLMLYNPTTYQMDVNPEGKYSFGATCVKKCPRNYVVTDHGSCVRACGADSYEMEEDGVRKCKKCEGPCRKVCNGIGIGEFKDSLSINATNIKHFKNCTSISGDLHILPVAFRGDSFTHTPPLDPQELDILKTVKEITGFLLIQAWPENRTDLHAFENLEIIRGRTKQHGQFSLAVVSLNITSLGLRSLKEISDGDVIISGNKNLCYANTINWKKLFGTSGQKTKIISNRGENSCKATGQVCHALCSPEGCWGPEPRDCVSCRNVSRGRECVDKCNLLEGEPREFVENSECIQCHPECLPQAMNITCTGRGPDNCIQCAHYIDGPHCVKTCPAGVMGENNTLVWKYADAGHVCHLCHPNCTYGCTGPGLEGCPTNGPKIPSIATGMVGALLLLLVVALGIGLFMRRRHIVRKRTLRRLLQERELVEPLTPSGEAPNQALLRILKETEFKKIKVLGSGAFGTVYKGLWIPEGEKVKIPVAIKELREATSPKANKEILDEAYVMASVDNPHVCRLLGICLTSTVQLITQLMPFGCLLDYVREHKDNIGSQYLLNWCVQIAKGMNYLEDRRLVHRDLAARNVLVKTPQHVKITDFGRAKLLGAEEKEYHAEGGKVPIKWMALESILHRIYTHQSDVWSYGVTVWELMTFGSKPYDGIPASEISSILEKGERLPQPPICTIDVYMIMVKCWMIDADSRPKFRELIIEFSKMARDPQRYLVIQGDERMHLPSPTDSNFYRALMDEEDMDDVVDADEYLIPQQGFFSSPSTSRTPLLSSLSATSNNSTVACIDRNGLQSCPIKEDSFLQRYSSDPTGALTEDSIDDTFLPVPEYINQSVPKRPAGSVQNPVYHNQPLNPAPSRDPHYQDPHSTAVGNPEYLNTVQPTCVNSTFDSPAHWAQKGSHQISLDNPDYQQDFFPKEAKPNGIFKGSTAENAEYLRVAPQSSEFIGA

For `CCc1nc(C2CCC(=O)NC2=O)ccc1N1CCC(N2CCN(c3ccc4c(c3)N3C[C@@H]5C[C@@]5(C)CCOc5c(cnn5C)-c5cc(cc(C)n5)C(=O)/N=C/3N4)CC2)CC1` (stereo partly shown) [Example 25, 3-(6-ethyl-5-(4-(4-((7^1R,7^2S,E)-1^1,2^6,7^2-trimethyl-3-oxo-5^2,5^3-dihydro-1^1H,5^1H-10-oxa-4-aza-5 (2,1)-benzo[d]imidazola-2 (2,4)-pyridina-1 (4,5)-pyrazola-7 (1,2)-cyclopropanacyclodecaphane-5^6-yl)piperazin-1-yl)piperidin-1-yl)pyridin-2-yl)piperidine-2,6-dione], in test [1], half-maximal degradation (DC50) was put at 2.42 nM and the Dmax came to 91.5%. Besides, in test [2], the DC50 stood at 1.65 nM and the Dmax is 57%.
For `COC[C@@H]1CN(c2ccc3c(c2)N2C[C@@H]4C[C@@]4(C)CCOc4c(cnn4C)-c4cc(cc(C)n4)C(=O)/N=C/2N3)CCN1C1CCN(c2cc(F)c([C@H]3CCC(=O)NC3=O)c(F)c2)CC1` [Example 26, (R)-3-(2,6-difluoro-4-(4-((S)-2-(methoxymethyl)-4-((7^1R,7^2S,E)-1^1,2^6,7^2-trimethyl-3-oxo-5^2,5^3-dihydro-1^1H,5^1H-10-oxa-4-aza-5 (2,1)-benzo[d]imidazola-2 (2,4)-pyridina-1 (4,5)-pyrazola-7 (1,2)-cyclopropanacyclodecaphane-5^6-yl)piperazin-1-yl)piperidin-1-yl)phenyl)piperidine-2,6-dione], in that order: 4.02 nM, 85.7%, 3.41 nM and 58.9%.
For `Cc1cc2cc(n1)-c1cnn(C)c1OCC[C@]1(C)C[C@H]1CN1/C(=N/C2=O)Nc2ccc(N3CCN(C4CN(C5CCN(c6cc(F)c([C@H]7CCC(=O)NC7=O)c(F)c6)CC5)C4)C[C@@H]3C)cc21` [Example 27, (R)-3-(2,6-difluoro-4-(4-(3-((S)-3-methyl-4-((7^1R,7^2S,E)-1^1,2^6,7^2-trimethyl-3-oxo-5^2,5^3-dihydro-1^1H,5^1H-10-oxa-4-aza-5 (2,1)-benzo[d]imidazola-2 (2,4)-pyridina-1 (4,5)-pyrazola-7 (1,2)-cyclopropanacyclodecaphane-5^6-yl)piperazin-1-yl)azetidin-1-yl)piperidin-1-yl)phenyl)piperidine-2,6-dione], in that order: 1.25 nM, 79.1%, 1.31 nM and 63.6%.
Regarding `Cc1cc2cc(n1)-c1cnn(C)c1OCC[C@H]1C[C@@H]1CN1/C(=N/C2=O)Nc2ccc(N3CC4CCC3CN4C3CN(C4CCN(c5c(C)cc(C6CCC(=O)NC6=O)nc5C)CC4)C3)cc21` (stereo partly shown) [Example 28, 3-(5-(4-(3-(5-((7^1S,7^2R,E)-1^1,2^6-dimethyl-3-oxo-5^2,5^3-dihydro-1^1H,5^1H-10-oxa-4-aza-5 (2,1)-benzo[d]imidazola-2 (2,4)-pyridina-1 (4,5)-pyrazola-7 (1,2)-cyclopropanacyclodecaphane-5^6-yl)-2,5-diazabicyclo[2.2.2]octan-2-yl)azetidin-1-yl)piperidin-1-yl)-4,6-dimethylpyridin-2-yl)piperidine-2,6-dione], in test [1], the DC50 is 6.31 nM and the Dmax stood at 78.2%. Besides, in test [2], it took 2.71 nM to reach half-maximal degradation (DC50) and the Dmax was found to be 49%.
For `Cc1cc2cc(n1)-c1cnn(C)c1OCC[C@]1(C)C[C@H]1CN1/C(=N/C2=O)Nc2ccc(N3CCC(C(=O)N4CCC(Oc5cc(F)c([C@H]6CCC(=O)NC6=O)c(F)c5)CC4)CC3)cc21` [Example 29, (R)-3-(2,6-difluoro-4-((1-(1-((7^1R,7^2S,E)-1^1,2^6,7^2-trimethyl-3-oxo-5^2,5^3-dihydro-1^1H,5^1H-10-oxa-4-aza-5 (2,1)-benzo[d]imidazola-2 (2,4)-pyridina-1 (4,5)-pyrazola-7 (1,2)-cyclopropanacyclodecaphane-5^6-yl)piperidine-4-carbonyl)piperidin-4-yl)oxy)phenyl)piperidine-2,6-dione], the figures for the DC50 in test [1] and in test [2] were 3.9 nM and 0.986 nM, respectively. Further, the Dmax is 67.8% in test [1] and 49.2% in test [2].
For `Cc1cc2cc(n1)-c1cnn(C)c1OCC[C@H]1C[C@@H]1CN1/C(=N/C2=O)Nc2ccc(N3CCN([C@H]4CCN(c5cc(F)c(C6CCC(=O)NC6=O)nc5C)C[C@H]4F)CC3)cc21` (stereo partly drawn) [Example 30, 3-(5-((3R,4S)-4-(4-((7^1S,7^2R,E)-1^1,2^6-dimethyl-3-oxo-5^2,5^3-dihydro-1^1H,5^1H-10-oxa-4-aza-5 (2,1)-benzo[d]imidazola-2 (2,4)-pyridina-1 (4,5)-pyrazola-7 (1,2)-cyclopropanacyclodecaphane-5^6-yl)piperazin-1-yl)-3-fluoropiperidin-1-yl)-3-fluoro-6-methylpyridin-2-yl)piperidine-2,6-dione], in that order: 21 nM, 9.57 nM, 89.3% and 57.5%.
Regarding `CCc1nc(C2CCC(=O)NC2=O)ccc1N1CC[C@H](N2CCN(c3ccc4c(c3)N3C[C@H]5C[C@@H]5CCOc5c(cnn5C)-c5cc(cc(C)n5)C(=O)/N=C/3N4)CC2)[C@H](F)C1` (stereo partly drawn) [Example 31, 3-(5-((3R,4S)-4-(4-((7^1S,7^2R,E)-1^1,2^6-dimethyl-3-oxo-5^2,5^3-dihydro-1^1H,5^1H-10-oxa-4-aza-5 (2,1)-benzo[d]imidazola-2 (2,4)-pyridina-1 (4,5)-pyrazola-7 (1,2)-cyclopropanacyclodecaphane-5^6-yl)piperazin-1-yl)-3-fluoropiperidin-1-yl)-6-ethylpyridin-2-yl)piperidine-2,6-dione], the DC50 in test [1] was 4.61 nM; in test [2], 9.56 nM. Moreover, the Dmax in test [1] amounted to 89.5%; in test [2], 69.3%.
For `CCc1nc(C2CCC(=O)NC2=O)ccc1N1CC[C@@H](N2CCN(c3ccc4c(c3)N3C[C@H]5C[C@@H]5CCOc5c(cnn5C)-c5cc(cc(C)n5)C(=O)/N=C/3N4)CC2)[C@@H](F)C1` (stereo partly drawn) [Example 32, 3-(5-((3S,4R)-4-(4-((7^1S,7^2R,E)-1^1,2^6-dimethyl-3-oxo-5^2,5^3-dihydro-1^1H,5^1H-10-oxa-4-aza-5 (2,1)-benzo[d]imidazola-2 (2,4)-pyridina-1 (4,5)-pyrazola-7 (1,2)-cyclopropanacyclodecaphane-5^6-yl)piperazin-1-yl)-3-fluoropiperidin-1-yl)-6-ethylpyridin-2-yl)piperidine-2,6-dione], in that order: 6.44 nM, 10.5 nM, 84.5% and 60.9%.
For `Cc1cc2cc(n1)-c1cnn(C)c1OCC[C@H]1C[C@@H]1CN1/C(=N/C2=O)Nc2ccc(N3CCN([C@@H]4CCN(c5c(C)cc(C6CCC(=O)NC6=O)nc5C)C[C@@H]4F)CC3)cc21` (stereo partly drawn) [Example 33, 3-(5-((3S,4R)-4-(4-((7^1S,7^2R,E)-1^1,2^6-dimethyl-3-oxo-5^2,5^3-dihydro-1^1H,5^1H-10-oxa-4-aza-5 (2,1)-benzo[d]imidazola-2 (2,4)-pyridina-1 (4,5)-pyrazola-7 (1,2)-cyclopropanacyclodecaphane-5^6-yl)piperazin-1-yl)-3-fluoropiperidin-1-yl)-4,6-dimethylpyridin-2-yl)piperidine-2,6-dione], in that order: 8.38 nM, 4.74 nM, 89.1% and 44.3%.
For `Cc1cc2cc(n1)-c1cnn(C)c1OCC[C@H]1C[C@@H]1CN1/C(=N/C2=O)Nc2ccc(N3CCN([C@@H]4CCN(c5cc(F)c(C6CCC(=O)NC6=O)nc5C)C[C@@H]4F)CC3)cc21` (stereo partly drawn) [Example 34, 3-(5-((3S,4R)-4-(4-((7^1S,7^2R,E)-1^1,2^6-dimethyl-3-oxo-5^2,5^3-dihydro-1^1H,5^1H-10-oxa-4-aza-5 (2,1)-benzo[d]imidazola-2 (2,4)-pyridina-1 (4,5)-pyrazola-7 (1,2)-cyclopropanacyclodecaphane-5^6-yl)piperazin-1-yl)-3-fluoropiperidin-1-yl)-3-fluoro-6-methylpyridin-2-yl)piperidine-2,6-dione], in that order: 7.47 nM, 11.9 nM, 83.8% and 57%.
